Experiments:
[1] = normal healthy volunteers; cited from earlier work
[2] = Plasma octreotide level one hour after intravenous administration (radioimmunoassay); assay type: in vivo, human; conditions: 50 μg octreotide IV bolus, 13 patients with cirrhosis and portal hypertension
From the text: Furthermore, we also studied the relationship between the mag- nitude and duration of response of octreotide on corrected wedged hepatic venous pressure (WHVP) and the circulatinglevels ofthe analogue after intravenous administration. Subcutaneous Administration of Octreotide Six patients (4 males and 2 females), receiving 50tg octreotide s.c. twice daily to prevent recurrent varieceal hemorrhage were studied 4 weeks after commencing treatment with the analogue. These patients were participating in a randomised controlled trial and had already undergone a baseline measurement of corrected wedged hepatic venous pressure (WHVP) prior to being commenced on octreotide (50 tg.sc.bd). […] One patient had severe (Child's C), 2 moderate (Child's B) and 3 mild (Child's A) liver dys- function. Following an overnight fast, blood samples were removed immediately prior to a subcutaneous injection of 50tg octreotide and then at 2 hourly intervals for the following 12 h. The blood samples were collected in hepari- nised bottles containing Trasylol, centrifuged at 0C, the plasma snap frozen and stored at -20C for subsequent analysis of the octreo- tide levels. […] Thirteen patient with cirrhosis and portal hy- pertension admitted for a thorough investigation of the etiology and severity of their liver disease underwent measurements of their corrected wedged hepatic venous pressure (WHVP). […]

[3] = Pharmacokinetics of octreotide after subcutaneous injection (plasma radioimmunoassay); conditions: for AUC: AUC 2-12 h; for Cmax: 50 μg, Plasma octreotide levels, Peak;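 as to all read-outs here: cirrhotic patients on twice-daily subcutaneous dosing for prevention of recurrent variceal bleeding, sampled four weeks into treatment, octreotide measured in plasma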
From the text: Furthermore, we also studied the relationship between the mag- nitude and duration of response of octreotide on corrected wedged hepatic venous pressure (WHVP) and the circulatinglevels ofthe analogue after intravenous administration. Subcutaneous Administration of Octreotide Six patients (4 males and 2 females), receiving 50tg octreotide s.c. twice daily to prevent recurrent varieceal hemorrhage were studied 4 weeks after commencing treatment with the analogue. These patients were participating in a randomised controlled trial and had already undergone a baseline measurement of corrected wedged hepatic venous pressure (WHVP) prior to being commenced on octreotide (50 tg.sc.bd). […] One patient had severe (Child's C), 2 moderate (Child's B) and 3 mild (Child's A) liver dys- function. Following an overnight fast, blood samples were removed immediately prior to a subcutaneous injection of 50tg octreotide and then at 2 hourly intervals for the following 12 h. The blood samples were collected in hepari- nised bottles containing Trasylol, centrifuged at 0C, the plasma snap frozen and stored at -20C for subsequent analysis of the octreo- tide levels. […] Thirteen patient with cirrhosis and portal hy- pertension admitted for a thorough investigation of the etiology and severity of their liver disease underwent measurements of their corrected wedged hepatic venous pressure (WHVP). […] A 7F occlusion ballon Sidewinder catheter (Cordis Corporation, Miami, USA) was guided into a hepatic vein under fluoroscopic control. […] The right femoral artery was cannu- lated with a 7F Cordis cannula via a 8F Cordis introducer.

[4] = Patient 1, Child's grade A, 50 μg s.c.
[5] = Patient 2, Child's grade A, 50 μg s.c.
[6] = Patient 3, Child's grade A, 50 μg s.c.
[7] = Patient 4, Child's grade B, 50 μg s.c.
[8] = Patient 5, Child's grade B, 50 μg s.c.
[9] = Patient 6, Child's grade C, 50 μg s.c.

C[C@@H](O)[C@@H]1NC(=O)[C@H](CCCCN)NC(=O)[C@@H](Cc2c[nH]c3ccccc23)NC(=O)[C@H](Cc2ccccc2)NC(=O)[C@@H](NC(=O)[C@H](N)Cc2ccccc2)CSSC[C@@H](C(=O)N[C@H](CO)[C@@H](C)O)NC1=O [octreotide]
hepatic excretion [1]: 30-40%
plasma octreotide level 1 h after administration [2]: 1944 pg/mL
level at 1 h ([2]; human, plasma, 50 ug): 1.94 ± 0.226 ng/mL
clearance, overall ([3]; 50 μg s.c., six patients, mean ± SD): 3.04 L/h
Clearance [3, 4]: 4.775 L/h
K [3, 4]: 0.271 h⁻¹
Volume of distribution [3, 4]: 17.62 L
Clearance [3, 5]: 2.892 L/h
K [3, 5]: 0.251 h⁻¹
Volume of distribution [3, 5]: 11.51 L
Clearance [3, 6]: 3.021 L/h
K [3, 6]: 0.288 h⁻¹
Volume of distribution [3, 6]: 10.47 L
Clearance [3, 7]: 2.765 L/h
K [3, 7]: 0.172 h⁻¹
Volume of distribution [3, 7]: 16.07 L
Clearance [3, 8]: 2.704 L/h
K [3, 8]: 0.172 h⁻¹
Volume of distribution [3, 8]: 15.77 L
Clearance [3, 9]: 2.101 L/h
K [3, 9]: 0.142 h⁻¹
Volume of distribution [3, 9]: 14.82 L
Tmax ([3]; both, human, plasma, sc, 50 ug): 2 h
half-life ([3]; both, human, plasma, sc, 50 ug, circulating (plasma) half life, range, 50 μg octreotide s.c., range over 6 patients with cirrhosis and portal hypertension): 2.4 to 4.79 h
half-life ([3]; both, human, plasma, sc, 50 ug, plasma half-life, overall, 50 μg s.c., six patients, mean ± SD): 3.44 h
AUC ([3]; human, plasma, sc, 50 ug, Patient 1, Child's grade A, 50 μg s.c.): 10.5 ng·h/mL
AUC ([3]; human, plasma, sc, 50 ug, Patient 2, Child's grade A, 50 μg s.c.): 17.2 ng·h/mL
AUC ([3]; human, plasma, sc, 50 ug, Patient 3, Child's grade A, 50 μg s.c.): 16.6 ng·h/mL
AUC ([3]; human, plasma, sc, 50 ug, Patient 4, Child's grade B, 50 μg s.c.): 18.1 ng·h/mL
AUC ([3]; human, plasma, sc, 50 ug, Patient 5, Child's grade B, 50 μg s.c.): 18.5 ng·h/mL
AUC ([3]; human, plasma, sc, 50 ug, Patient 6, Child's grade C, 50 μg s.c.): 23.8 ng·h/mL
Cmax ([3]; human, plasma, sc, Patient 1, Child's grade A, 50 μg s.c.): 2.59 ng/mL
Cmax ([3]; human, plasma, sc, Patient 2, Child's grade A, 50 μg s.c.): 2.2 ng/mL
Cmax ([3]; human, plasma, sc, Patient 3, Child's grade A, 50 μg s.c.): 2.09 ng/mL
Cmax ([3]; human, plasma, sc, Patient 4, Child's grade B, 50 μg s.c.): 2.94 ng/mL
Cmax ([3]; human, plasma, sc, Patient 5, Child's grade B, 50 μg s.c.): 3.28 ng/mL
Cmax ([3]; human, plasma, sc, Patient 6, Child's grade C, 50 μg s.c.): 3.51 ng/mL
half-life ([3]; human, plasma, sc, 50 ug, t1/2, Patient 1, Child's grade A, 50 μg s.c.): 2.4 h
half-life ([3]; human, plasma, sc, 50 ug, t1/2, Patient 2, Child's grade A, 50 μg s.c.): 2.76 h
half-life ([3]; human, plasma, sc, 50 ug, t1/2, Patient 3, Child's grade A, 50 μg s.c.): 2.56 h
half-life ([3]; human, plasma, sc, 50 ug, t1/2, Patient 4, Child's grade B, 50 μg s.c.): 4.03 h
half-life ([3]; human, plasma, sc, 50 ug, t1/2, Patient 5, Child's grade B, 50 μg s.c.): 4.04 h
half-life ([3]; human, plasma, sc, 50 ug, t1/2, Patient 6, Child's grade C, 50 μg s.c.): 4.89 h
